Results taken from publication PMC8877008, “Synthesis and Structure–Activity Relationship Studies of Benzimidazole-4,7-dione-Based P2X3 Receptor Antagonists as Novel Anti-Nociceptive Agents” (Molecules, 2022).

What was measured:
CYP 2C19 = CYP 2C19 (Homo sapiens, UniProt P33261); experiment: CYP450 inhibition 2C19; type: in vitro ADME; conditions: compound 10 μM
[1] = Metabolic stability in microsomal fraction, mouse; type: in vitro ADME
[2] = Metabolic stability in microsomal fraction, rat; type: in vitro ADME; conditions: rat microsomal fraction, read-out: Metabolic Stability (Microsomal Fr.) % remaining after 30 min
BBB-PAMPA permeability = type: in vitro ADME; conditions: UV/vis spectrophotometry
CIPN rats = experiment: Antiallodynic effect, cisplatin chemotherapy-induced peripheral neuropathy (CIPN) model, von Frey; type: in vivo, male Sprague-Dawley rats; conditions: intravenous 12 mg/kg, von Frey filaments, five rats
Description: The experimental protocol (CNUHIACUC-20039) was approved by the Institutional Animal Care and Use Committee of Chonnam National University Hospital. Animal models of neuropathic pain (NP) were constructed by spinal nerve ligation (SNL) or chemotherapeutics injection (chemotherapy-induced peripheral neuropathy, CIPN) in male Sprague-Dawley rats (weight, 150–180 g). Briefly, under sevoflurane anesthesia, the left L5 and L6 spinal nerves near the vertebral column were separated and tightly ligated using 6-0 silk. Cisplatin was administered intraperitoneally at 2 mg/kg once daily for 4 days. The paw withdrawal threshold (PWT) to mechanical stimuli was measured using calibrated 0.41–15.2 g von Frey filaments (Stoelting, Wood Dale, IL, USA), as described previously. […] The antiallodynic effects of the intravenous vehicle and LDD4692 (3mg/rat) were evaluated and expressed as the percentage of the maximal possible effect (% MPE). % MPE = [(post drug PWT − post injured baseline PWT)/(cutoff PWT − post injured baseline PWT)] × 100
For the analysis of antagonistic activities, all data were calculated by Origin Pro 9.1 software provided by Originlab and the fitting of graphs was proceeded by the growth/sigmoidal and hill1 process within no weights for data selections. For the analysis of the behavioral assessments of pain models, all data are expressed as mean ± SEM. […]

CYP 2C19, sequence (P33261 whole entry): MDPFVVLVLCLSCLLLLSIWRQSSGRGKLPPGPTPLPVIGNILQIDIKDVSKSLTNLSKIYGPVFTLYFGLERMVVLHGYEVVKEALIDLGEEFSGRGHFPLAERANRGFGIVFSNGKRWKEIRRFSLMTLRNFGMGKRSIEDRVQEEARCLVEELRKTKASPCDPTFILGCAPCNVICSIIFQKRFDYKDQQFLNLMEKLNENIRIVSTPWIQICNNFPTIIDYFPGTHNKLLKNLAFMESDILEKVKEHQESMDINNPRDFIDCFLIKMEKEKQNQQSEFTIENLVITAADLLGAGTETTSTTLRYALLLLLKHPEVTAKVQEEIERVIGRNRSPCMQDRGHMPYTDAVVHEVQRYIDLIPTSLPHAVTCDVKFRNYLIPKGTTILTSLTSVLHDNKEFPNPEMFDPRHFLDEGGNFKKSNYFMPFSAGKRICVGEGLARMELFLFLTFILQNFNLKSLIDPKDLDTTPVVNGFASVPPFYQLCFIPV

- CYP450 inhibition 2C19 (CYP 2C19): 25.6%
- remaining at 0.5 h ([1]; microsomal fraction, species not given, lowest of human, rat, mouse is mouse, read-out: Metabolic stability, % remaining after 30 min incubation (summary)): > 92%
- remaining at 0.5 h ([1]; mouse, mouse microsomal fraction, read-out: Metabolic Stability (Microsomal Fr.) % remaining after 30 min): 92.8%
- remaining at 0.5 h [2]: > 99%
- BBB-PAMPA logPe (BBB-PAMPA permeability): <−6.000 logPe
SMILES: O=C1C(NC2CCN(C(=O)c3ccc(F)c(F)c3)CC2)=C(Cl)C(=O)c2[nH]c(C(F)(F)F)nc21 [14h, 6-Chloro-5-((1-(3,4-difluorobenzoyl)piperidin-4-yl)amino)-2-(trifluoromethyl)-1H-benzo[d]imidazole-4,7-dione]
- Maximal possible effect (% MPE), antiallodynic (CIPN rats): 78%
